From ChEMBL document CHEMBL1143887, “Novel amino linkers enabling efficient labeling and convenient purification of amino-modified oligonucleotides” (Bioorg Med Chem, 2008)

Assay: Dissociation constant, pKa of the compound
Format: physicochemical

pKa: 8.9
SMILES: NC[C@H](COCc1cccc2ccccc12)OC(=O)NCCCCCCO
